One data set has as its system Candida albicans 90028. The data set is described as follows: microbe, parasite or virus in culture. It is filed as cell-based. The following applies: ATCC90028, ATCC 90028, peptides 0.5 to 256 μM, 100 μL, 96-well, no cells seen by optical microscopy, three biological repetitions with 2 technical replicates, mean ± SD, read-out: Minimum inhibitory concentration (μM ± SD) C. albicans. The protocol: (§1) Protocols M7-A10 [46], M27-A3 [47] and M38-A2 [48] from Clinical & Laboratory Standards Institute (CLSI) were used to test the susceptibility of bacteria, yeasts and filamentous fungi to the Hs IAPs. Briefly, Hs IAPs ranging from 0.5 to 256 μM were tested against microorganisms in a final volume of 100μL. Tests were performed in polystyrene flat-bottom 96 wells microplates and each test consisted of three biological repetitions with 2 technical replicates each. The minimum inhibitory concentration (MIC) was defined as the concentration that no cells/hyphae were detected when visualized by optical microscopy. ATCC reference strains: Candida albicans 90028, Staphylococcus aureus 25923, Pseudomonas aeruginosa 27853, Trichophyton rubrum 28189, Staphylococcus epidermidis 12228.

Data set [1] relates to Staphylococcus epidermidis 12228. Kind of data set: microbe, parasite or virus in culture. It is filed as cell-based. The following applies: ATCC 12228, peptides 0.5 to 256 μM, 100 μL, 96-well, three biological repetitions with 2 technical replicates, mean ± SD. The procedure: as §1
Data set [2] deals with Staphylococcus aureus 25923. The data set is described as follows: microbe, parasite or virus in culture. It is filed as cell-based. The following applies: ATCC 25923, peptides 0.5 to 256 μM, 100 μL, 96-well, three biological repetitions with 2 technical replicates, mean ± SD. The procedure: as §1
For data set [3], the system named is Pseudomonas aeruginosa 27853. Kind of data set: microbe, parasite or virus in culture. It is filed as cell-based. The note with it: ATCC27853, ATCC 27853, peptides 0.5 to 256 μM, 100 μL, 96-well, three biological repetitions with 2 technical replicates, mean ± SD, read-out: Minimum inhibitory concentration (μM ± SD) P. aeruginosa. The procedure: as §1
Data set [4] concerns mouse BALB/cN macrophage (J774A.1) cell line. It is filed as cell-based. The following applies: for Viability of J774A.1 macrophages versus DMEM untreated control: 24 h exposure, peptide at 0.1, 1 and 10 μM, flow cytometry, 20,000 events/sample, p<0.05. The protocol: (§2) Fig 4 a. Cytotoxicity evaluation in the mouse BALB/cN macrophage (J774A.1) cell line after exposure for 24 h at 0.1, 1.0 and 10 μM concentrations. DMEM was used as a negative control. Cells were analyzed by flow cytometry (20,000 events/sample). b. Evaluation of the cell death mechanism mediated by Hs02 in J774A.1 cells after exposure for 24 h at 0.1, 1.0 and 10 μM concentrations using annexin-V FITC (apoptosis marker) and propidium iodide (PI, necrosis marker) staining. Cells were analyzed by flow cytometry (20,000 events/sample). The values are expressed as mean ± SEM. * p<0.05 and **** p<0.0001 versus DMEM untreated control group. # p<0.05 versus apoptosis staining for each respective group.
(§3) The cytotoxicity of Hs IAPs was performed using human red blood cells in strict accordance with relevant guidelines and regulations (Ethical committee–UnB # 1.939.989 as described elsewhere. Cytotoxic effect of IAPs was evaluated by MTT assay and flow cytometry analysis using murine peritoneal macrophages from C57BL/6 mice or a BALB/cN-derived macrophages (J774A.1) cell line. For cell viability assays using MTT, murine peritoneal macrophages from C57BL/6 mice were plated in triplicate wells in 96-well plates at a density of 1.0 × 10^5 cells per well and stimulated or not with different concentrations of Hs IAPs (0.1, 1 and 10 μM) and incubated for 24h. After that, 20μl of a solution of 3-(4,5-Dimethyl-thiazol-2-yl)-2,5-diphenyl-tetrazolium bromide (MTT, Sigma) was added to each well (5 mg/ml of MTT in phosphate buffered saline). The plates were incubated at 37°C for 3 hours and then processed as previously described. Cell death was analysed by annexin V-FITC/PI staining followed by flow cytometry analysis. Mouse BALB/cN macrophage (J774A.1) cell line was acquired from ATCC (number TIB-67) and cultured in Dulbecco’s Modified Eagle’s Medium (DMEM) (Life) supplemented with 10% heat inactivated foetal bovine serum (Life) and 1% antibiotic solution (100 IU/mL penicillin/100 μg/mL streptomycin, Life) at 37°C, 5% CO2, in a humidified atmosphere. […]
In general terms: A flow cytometer gives signals particle by particle.

For data set [5], the system named is murine peritoneal macrophages from C57BL/6 mice. Kind of data set: MTT reduction assay in primary macrophages. It is filed as cell-based, mouse. The following applies: 24 h incubation, triplicate wells (S1 Fig). The procedure:
as §3
Background: Tetrazolium dyes change colour on reduction, which living cells bring about.

The test system of a further data set is human red blood cells. Format: cell-based. The procedure:
The cytotoxicity of Hs IAPs was performed using human red blood cells in strict accordance with relevant guidelines and regulations (Ethical committee–UnB # 1.939.989 as described elsewhere. Cytotoxic effect of IAPs was evaluated by MTT assay and flow cytometry analysis using murine peritoneal macrophages from C57BL/6 mice or a BALB/cN-derived macrophages (J774A.1) cell line. For cell viability assays using MTT, murine peritoneal macrophages from C57BL/6 mice were plated in triplicate wells in 96-well plates at a density of 1.0 × 10^5 cells per well and stimulated or not with different concentrations of Hs IAPs (0.1, 1 and 10 μM) and incubated for 24h. After that, 20μl of a solution of 3-(4,5-Dimethyl-thiazol-2-yl)-2,5-diphenyl-tetrazolium bromide (MTT, Sigma) was added to each well (5 mg/ml of MTT in phosphate buffered saline). The plates were incubated at 37°C for 3 hours and then processed as previously described. Cell death was analysed by annexin V-FITC/PI staining followed by flow cytometry analysis. Mouse BALB/cN macrophage (J774A.1) cell line was acquired from ATCC (number TIB-67) and cultured in Dulbecco’s Modified Eagle’s Medium (DMEM) (Life) supplemented with 10% heat inactivated foetal bovine serum (Life) and 1% antibiotic solution (100 IU/mL penicillin/100 μg/mL streptomycin, Life) at 37°C, 5% CO2, in a humidified atmosphere. J774A.1 cells were seeded into 96-well culture plates in DMEM culture medium for 2 h at 37°C and 5% CO2 in a humid atmosphere at a density of 1.0 × 10^5 cells, and stimulated or not with different concentrations of Hs IAPs (0.1, 1 and 10 μM). The plates were incubated for 24 h, washed in PBS, and resuspended in 100 μL of binding buffer (10 mM HEPES/NaOH pH 7.4, 140 mM NaCl, ad 2.5 mM CaCl2). Cells were then treated with 2 μL of annexin-V FITC in Aqueous buffered solution containing BSA and ≤0.09% sodium azide (BD Pharmingen) and 2 μL of propidium iodide (PI, 50 μg/mL) for 15 min in the dark at room temperature. Next, 100 μL binding buffer was added and a total of 20,000 events were collected per sample in flow cytometer (BD LSRFortessa).

The test system of data set [6] is murine peritoneal macrophages from C57BL/6 mice. The data set is described as follows: LPS-induced TNF-α release by ELISA. It is filed as cell-based, mouse. The following applies: macrophages primed with 500 ng/mL LPS for 4 h, then peptide for 24 h, Hs02 at 0.1, 1 and 10 μM, DS01 at 1 and 10 μM. The protocol: Fig 5 TNF-α secretion and lipid droplet biogenesis evaluation. a. Murine peritoneal macrophages from C57BL/6 mice were pre-treated or not with LPS (500 ng/ml) for 4h and then stimulated or not with Hs IAPs (0.1, 1.0 and 10 μM), incubated for 24h and TNF-α levels measured by ELISA b. In parallel, murine peritoneal macrophages from C57BL/6 mice were pre-treated or not with LPS (500 ng/ml) for 4h and then stimulated or not with Hs IAPs (0.1 μM), incubated for 24h and lipid droplets were quantitated by flow cytometry (B). The values are expressed as mean ±SEM. * p<0.05 and **** p<0.0001 versus DMEM control group. […] The digits of 121, 119, 364 and 122 are best readings.
The modulation of pro-inflammatory cytokine TNF-α secretion induced by IAPs was evaluated by ELISA. […] Supernatant TNF-α concentration was detected by ELISA with a R&D Systems (USA) kit. […] Plates were read after adding the stop solution at 450nm using SpectraMax M3spectrophotometer (Molecular Devices).
Supplementary file pone.0220656.s004.tif: S3 Fig TNF-α release in murine macrophages. Murine peritoneal macrophages from C57BL/6 mice were pre-treated or not with LPS (500 ng/ml) for 4h and then stimulated or not with the AMP DS01 (10, and 1 μM), incubated for 24h and TNF-α levels measured by ELISA. The values are expressed as mean ±SEM. * p<0.05 and **** p<0.0001 versus DMEM control group. […]

Data set [7] relates to mouse BALB/cN macrophage (J774A.1) cell line. The data set is described as follows: Annexin-V FITC / propidium iodide staining by flow cytometry. The note with it: 24 h exposure at 0.1, 1.0 and 10 μM; flow cytometry, 20,000 events/sample. Format: cell-based. The protocol:
as §2
The cytotoxicity of Hs IAPs was performed using human red blood cells in strict accordance with relevant guidelines and regulations (Ethical committee–UnB # 1.939.989 as described elsewhere. Cytotoxic effect of IAPs was evaluated by MTT assay and flow cytometry analysis using murine peritoneal macrophages from C57BL/6 mice or a BALB/cN-derived macrophages (J774A.1) cell line. For cell viability assays using MTT, murine peritoneal macrophages from C57BL/6 mice were plated in triplicate wells in 96-well plates at a density of 1.0 × 10^5 cells per well and stimulated or not with different concentrations of Hs IAPs (0.1, 1 and 10 μM) and incubated for 24h. […]

In brackets after ≈: the same amount, converted by molar mass. Entries after “also recorded” stand apart in the source; their conditions may differ. Ends that are not written are not given here.

`C[C@@H]1[C@H](O)[C@@H](C)/C=C/C=C/C=C/C=C/C=C/C=C/C=C/[C@H](O[C@@H]2O[C@H](C)[C@@H](O)[C@H](N)[C@@H]2O)C[C@@H]2O[C@](O)(C[C@@H](O)C[C@@H](O)[C@H](O)CC[C@@H](O)C[C@@H](O)CC(=O)O[C@H]1C)C[C@H](O)[C@H]2C(=O)O` [Amphotericin b]: in the data set with Candida albicans 90028, the MIC was 0.27 µM (≈ 0.25 µg/mL). With `CC1(C)S[C@@H]2[C@H](NC(=O)[C@H](N)c3ccccc3)C(=O)N2[C@H]1C(=O)O` [Ampicilin], the “Minimum inhibitory concentration (μM ± SD) S. epidermidis” value in data set [1] was determined as 43.10 ± 0.0 µM (≈ 15.1 µg/mL). Moreover, the “Minimum inhibitory concentration (μM ± SD) S. aureus” value in [2] turned out to be 5.38 ± 0.0 µM (≈ 1.88 µg/mL). Turning to `OC(Cn1cncn1)(Cn1cncn1)c1ccc(F)cc1F` [Fluconazol], the MIC in the data set with Candida albicans 90028 turned out to be 1.63 µM (≈ 0.499 µg/mL). Take `CNC(C)C1CCC(N)C(OC2C(N)CC(N)C(OC3OCC(C)(O)C(NC)C3O)C2O)O1` (centres unmarked) [Gentamicin]: the MIC stood at 0.13 µM (≈ 0.0621 µg/mL) in data set [3]; 0.26 µM (≈ 0.124 µg/mL) in data set [1] (Staphylococcus epidermidis, ATCC12228, read-out: Minimum inhibitory concentration (μM ± SD) S. epidermidis); 0.26 µM (≈ 0.124 µg/mL) in data set [2] (Staphylococcus aureus, ATCC25923, read-out: Minimum inhibitory concentration (μM ± SD) S. aureus). For `OO` [hydrogen peroxide (H2O2), hydrogen peroxide], the “Viability of J774A.1 macrophages versus DMEM untreated control” value in [4] is recorded as “decreased significantly (p<0.05) the cell viability”.

Regarding FLREFHKWIERVVGWLGKVF-NH2 [Hs03], in data set [5], the “Concentration that reduced the viability of peritoneal macrophages to 50%” value is on record as “approximately 10 μM”. The “Hemolytic activity SC50” value in the data set on human red blood cells is above 128 µM. As for GFKDLLKGAAKALVKTVLF-NH2 [Asc-8], in the data set with human red blood cells, the “Hemolytic activity SC50” value stood at 32 µM. For “GLWSTIKQKGKEAAIAAAKAAGQAALGAL-NH2 [DS01]”, the “Peptide concentration that inhibits LPS-induced release of TNF-α” value in data set [6] was above 10 µM. Moreover, the “Hemolytic activity SC50” value with human red blood cells is above 128 µM. Take KWAVRIIRKFIKGFIS-NH2 [Hs02]: in [4], the “Viability of J774A.1 macrophages versus DMEM untreated control” value is reported as “did not cause significant (p<0.05) reduction in the viability”. The “Concentration tolerated by the J774A.1 macrophage cell line” value in data set [4] (flow cytometry, 24 h, 0.1, 1 and 10 μM tested) is at least 10 µM. Moreover, in the data set on human red blood cells, the “Hemolytic activity SC50” value is above 128 µM. Further, the “Apoptosis (annexin-V FITC) or necrosis (PI) in J774A.1 cells versus DMEM control” value in data set [7] was “did not present significant apoptosis or necrosis; also recorded: No significant apoptosis or necrosis”. With LFNNYITAALKLLEKLYKV-NH2 [Hs04], the “Concentration that reduced the viability of peritoneal macrophages to 50%” value in data set [5] is given as “approximately 10 μM”. Besides, in the data set with human red blood cells, the “Hemolytic activity SC50” value worked out at 64 µM. In the case of LKMLGMLFHNIRNILKTV-NH2 [Hs01], the “Hemolytic activity SC50” value with human red blood cells was above 128 µM.

(Values after publication PMC6684085, “Intragenic antimicrobial peptides (IAPs) from human proteins with potent antimicrobial and anti-inflammatory activity” (PLoS ONE, 2019).)
